# Columns and labels:
# [1] = system: XPC4 target CpG motives in 293H cells; assay: DNA methylation of XPC4 target by bisulfite treatment and sequencing, 5-aza-2-deoxycytidine treatment; assay type: cell-based, human; conditions: for amount of unmethylated C, % of total: one of the two CpG of XPC4 target; for amount of unmethylated C: the other CpG of XPC4 target
# Experimental: FIG. 9: Chromatograms of sequencing reactions at the XPC4 target locus, made after bisulfite treatment. Cells were pre-treated with 5-aza-2-deoxycytidine at 0.2 μM or 1 μM 48 hours before transfection with the XPC4 meganuclease or with an empty vector. The treatment was maintained 48 hours post-transfection. As a control, we used cells not treated with 5-aza-2-deoxycytidine (NT). Two days post transfection, genomic DNA was extracted and treated with bisulfite, which converts cytosine, but not 5-methylcytosine into uracil. DNA from the XPC4 target locus region was amplified by PCR, and sequenced. Sequence of the XPC4 target is indicated on top (XPC4 target), with the two CpG motives being underlined. On the chromatograms, 5-methyl-cytosines appear as cytosines (C), and non methylated cytosines (converted to uracil) as thymines (T). In the presence of 5-aza-2-deoxycytidine, a fraction of the CpG motives is demethylated, resulting in a dual C/T peak.
# The human 293H cells (ATCC) were plated at a density of 1.2×10^6 cells per 10 cm dish in complete medium (DMEM supplemented with 2 mM L-glutamine, penicillin (100 IU/ml), streptomycin (100 μg/ml), amphotericin B (Fongizone: 0.25 μg/ml, Invitrogen-Life Science) and 10% FBS) supplemented with 5-aza-deoxycytidine. The next day, cells were transfected with 3 μg of meganuclease expression vector in the presence of 5-aza-deoxycytidine and Lipofectamine 2000 transfection reagent (Invitrogen) according to the manufacturer's protocol.
# Cells were pre-treated with 5-aza-deoxycytidine at 0.2 μM or 1 μM 48 hours before transfection and the treatment was maintained 48 hours post-transfection. As a control, cells not treated with 5-aza-2-deoxycytidine (NT) were used. Extraction of genomic DNA was performed 48 hours after transfection.
# To assess the level DNA methylation, DNA sequencing was performed after a bisulfite treatment according to the instructions of the manufacturer (EZ DNA methylation-Gold Kit, Zymo Research). After genomic DNA extraction, the XPC4 target locus was amplified by PCR with specific primers
# [2] = system: CAPNS1 target in human CAPNS1 gene, 293H cells; assay: Meganuclease-induced mutagenesis assay at CAPNS1 recognition site; assay type: cell-based; conditions: Empty vector, 1 μM 5-aza-2′-deoxycytidine, CAPNS1 locus
# Experimental: The human 293H cells (ATCC) were plated at a density of 1.2×10^6 cells per 10 cm dish in complete medium (DMEM supplemented with 2 mM L-glutamine, penicillin (100 IU/ml), streptomycin (100 μg/ml), amphotericin B (Fongizone: 0.25 μg/ml, Invitrogen-Life Science) and 10% FBS). The cells were pre-treated with 5-aza-deoxycytidine at 0.2 μM or 1 μM, 48 hours before transfection and the treatment was maintained 48 hours post-transfection. The medium was changed every day. The cells were transfected with 3 μg of DNA plasmids encoding meganuclease for RAG or 2.5 μg of each monomer CAPNS1 using Lipofectamine 2000 transfection reagent (Invitrogen) according to the manufacturer's protocol.
# The efficiency of the meganuclease to promote mutagenesis at its endogenous recognition site was evaluated by sequencing the DNA surrounding the meganuclease cleavage site. Two days post-transfection, genomic DNA was extracted. 200 ng of genomic DNA were used to amplify (PCR amplification) the endogenous locus surrounding the meganuclease cleavage site. PCR amplification is performed to obtain a fragment flanked by specific adaptor sequences [adaptor A: 5′-[…]-NNNN-3′(SEQ ID NO: 46) and adaptor B, 5′-[…]-3′ (SEQ ID NO: 47)] provided by the company offering sequencing service (GATC Biotech AG, Germany) on the 454 sequencing system (454 Life Sciences). The primers sequences used for PCR amplification were:
# RAG_R1: 5′-[…]-[…]-3′ (SEQ ID NO: 58) and CAPNS1_J3: 5′-[…]-NNNN-[…] (SEQ ID NO: 59) and CAPNS1_R3: 5′-[…]-[…]-3′ (SEQ ID NO: 60). Sequences specific to the locus are underlined. The sequence NNNN in primer F1 is a Barcode sequence (Tag) needed to link the sequence with a PCR product. The percentage of PCR fragments carrying insertion or deletion at the meganuclease cleavage site is related to the mutagenesis induced by the meganuclease through NHEJ pathway in a cell population, and therefore correlates with the meganuclease activity at its endogenous recognition site. 5000 to 10000 sequences were analyzed per conditions.
smiles,measurement,setting,value
"Nc1ncn([C@H]2C[C@H](O)[C@@H](CO)O2)c(=O)n1 [5-aza-2′deoxycytidine, reference compound]","amount of unmethylated C, % of total",[1]; 0.2 μM,25%
same,"amount of unmethylated C, % of total",[1]; 1 μM,36%
same,amount of unmethylated C,[1]; 0.2 μM,35%
same,amount of unmethylated C,[1]; 1 μM,45%
same,"mutagenesis, PCR fragments carrying a mutation",[2],0.22%±0.25
same,"mutagenesis, PCR fragments carrying a mutation",[2]; listed as 5-aza-2′-deoxycytidine,0.22% ± 0.25

# From patent US20130196320A1, “METHOD FOR IMPROVING CLEAVAGE OF DNA BY ENDONUCLEASE SENSITIVE TO METHYLATION” (CELLECTIS, priority 2010, published 2013)
